Results reported in BigSolDB 2.1.

NC(N)=S
solubility (mole fraction)
Conditions	283.15 K	288.15 K	293.15 K	298.15 K	303.15 K	308.15 K	313.15 K	318.15 K	323.15 K
in 2-butanone	0.0135	0.0154	0.0171	0.0189	0.0203	0.0219	0.0234	0.0247	0.0264
in acetone	0.0348	0.0364	0.0375	0.0389	0.0401	0.042	0.0438	0.0465	0.0482
in acetonitrile	0.00865	0.00982	0.0107	0.012	0.0134	0.0146	0.016	0.018	0.0196
in ethanol	0.0172	0.02	0.0227	0.0254	0.0285	0.0315	0.0353	0.0394	0.0442
in ethyl acetate	0.00497	0.00519	0.00548	0.0058	0.0062	0.00664	0.00718	0.00769	0.00814
in isobutanol	0.00827	0.0101	0.0116	0.0132	0.0152	0.0171	0.0189	0.0224	0.0251
in isopropanol	0.0133	0.0151	0.0168	0.019	0.0225	0.0246	0.0273	0.0308	0.0344
in methanol	0.0423	0.0471	0.0521	0.0596	0.0644	0.07	0.0761	0.0848	0.0944
in methyl acetate	0.00556	0.00628	0.00673	0.00747	0.00814	0.00885	0.00951	0.0102	0.0109
in n-butanol	0.0104	0.0121	0.0133	0.015	0.0173	0.0195	0.0212	0.0238	0.0274
in n-propanol	0.0128	0.0143	0.0157	0.0177	0.0209	0.0231	0.0255	0.029	0.0326
in water	0.0211	0.0265	0.0325	0.0396	0.0493	0.0592	0.0701	0.0835	0.102
